Data as given in ChEMBL document CHEMBL4184120, “Target ROS to induce apoptosis and cell cycle arrest by 5,7-dimethoxy-1,4-naphthoquinone derivative” (Bioorg Med Chem Lett, 2018).

Assays:
HeLa = assay: Antiproliferative activity against human HeLa cells after 48 hrs by MTT assay; type: functional, cell-based
HepG2 = assay: Antiproliferative activity against human HepG2 cells after 48 hrs by MTT assay; type: functional, cell-based; details: HepG2, 48 h
A549 = assay: Antiproliferative activity against human A549 cells after 48 hrs by MTT assay; type: functional, cell-based; details: A549, 48 h
NCI-H460 = assay: Antiproliferative activity against human NCI-H460 cells after 48 by hrs MTT assay; type: functional, cell-based
HL-60 [1] = assay: Antiproliferative activity against human HL60 cells after 48 hrs by MTT assay; type: functional, cell-based; details: HL-60, 48 h
K562 = assay: Antiproliferative activity against human K562 cells after 48 hrs by MTT assay; type: functional, cell-based; details: K562, 48 h
WI-38 = assay: Antiproliferative activity against human WI38 cells after 48 hrs by MTT assay; type: cell-based; details: WI-38, 48 h
[2] = Selectivity index, ratio of IC50 for human WI38 cells to IC50 for human HL60 cells; type: toxicity; details: WI38 cells and HL60 cells, read-out: Ratio IC50
HL-60 [3] = assay: Induction of apoptosis in human HL60 cells assessed as early apoptotic cells at 5 mM after 48 hrs by Annexin V-FITC/propidium iodide staining based flow cytometry (reference value: 3.13%); type: functional
HL-60 [4] = assay: Induction of apoptosis in human HL60 cells assessed as late apoptotic cells at 5 mM after 48 hrs by Annexin V-FITC/propidium iodide staining based flow cytometry (reference value: 1.23%); type: functional
HL-60 [5] = assay: Cell cycle arrest in human HL60 cells assessed as accumulation at G0/G1 phase at 5 mM after 48 hrs by propidium iodide staining based assay (reference value: 50.88%); type: functional
HL-60 [6] = assay: Cell cycle arrest in human HL60 cells assessed as accumulation at S phase at 5 mM after 48 hrs by propidium iodide staining based assay (reference value: 46.44%); type: functional
HL-60 [7] = assay: Cell cycle arrest in human HL60 cells assessed as accumulation at G2/M phase at 5 mM after 48 hrs by propidium iodide staining based assay (reference value: 2.68%); type: functional
[8] = Redox potential of the compound in pH 7.4 PBS buffer assessed as reduction potential at 0.4 mM by cyclic voltametry; type: physicochemical; details: pH 7.4, 400 µM
[9] = Redox potential of the compound in pH 7.4 PBS buffer assessed as oxidation potential at 0.4 mM by cyclic voltametry; type: physicochemical; details: pH 7.4, 400 µM
[10] = Redox potential of the compound in pH 7.4 PBS buffer assessed as half wave potential at 0.4 mM by cyclic voltametry; type: physicochemical; details: pH 7.4, 400 µM

Work on `COc1cc(OC)c2c(c1)C(=O)C(Cl)=C(CCC1CCCCC1)C2=O` yielded an IC50 (HeLa) of 21.2 µM, an IC50 (HepG2) of 41.4 µM and an IC50 (A549) of 63 µM. It also gave an IC50 (NCI-H460) of 61 µM, an IC50 (HL-60 [1]) of 9.2 µM and an IC50 (K562) of 29.9 µM. For the same compound, the IC50 (WI-38) was 34.2 µM and the selectivity ratio [2] was 3.7.

For `COC1=C(CCc2ccc(OC)cc2)C(=O)c2c(OC)cc(OC)cc2C1=O`, the IC50 (HeLa) was 35 µM, the IC50 (HepG2) was 47.5 µM and the IC50 (A549) was > 100 µM. It also gave an IC50 (NCI-H460) of 37.1 µM and an IC50 (HL-60 [1]) of 52 µM.

`CC(=O)N[C@@H](CS)C(=O)O` [ACETYLCYSTEINE] gave an Activity (HL-60 [3]) of 1.56%, an Activity (HL-60 [4]) of 2.43% and an Activity (HL-60 [5]) of 57.36%. For the same compound, the Activity (HL-60 [6]) was 40.12% and the Activity (HL-60 [7]) was 2.52%.

Compound `COc1cc(OC)c2c(c1)C(=O)C(O)=C(CCC1CCCCC1)C2=O` has an IC50 (HeLa) of 79.4 µM, an IC50 (HepG2) of 49.9 µM and an IC50 (A549) of 78.5 µM. For the same compound, the IC50 (NCI-H460) was 86.2 µM and the IC50 (HL-60 [1]) was 95.8 µM.

With `CCCCCCCCCCCCC1=C(O)C(=O)c2cc(OC)cc(OC)c2C1=O` the IC50 (HeLa) was > 100 µM, the IC50 (HepG2) was > 100 µM and the IC50 (A549) was > 100 µM. For the same compound, the IC50 (NCI-H460) was > 100 µM and the IC50 (HL-60 [1]) was 86.7 µM.

In the case of `COc1cc(OC)c2c(c1)C(=O)C(O)=C(CCc1ccc(Br)cc1)C2=O`, the IC50 (HeLa) is reported as > 100 µM, the IC50 (HepG2) is reported as 73.2 µM and the IC50 (A549) is reported as > 100 µM. The IC50 (NCI-H460) was > 100 µM and the IC50 (HL-60 [1]) was > 100 µM.

In the case of `CCC1=C(O)C(=O)c2cc(OC)cc(OC)c2C1=O`, the IC50 (HeLa) is reported as 96.5 µM, the IC50 (HepG2) is reported as > 100 µM and the IC50 (A549) is reported as > 100 µM. For the same compound, the IC50 (NCI-H460) was > 100 µM and the IC50 (HL-60 [1]) was > 100 µM.

For `COC1=C(CCC2CCCCC2)C(=O)c2c(OC)cc(OC)cc2C1=O`, the IC50 (HeLa) was 70.2 µM, the IC50 (HepG2) was 37.4 µM and the IC50 (A549) was > 100 µM. It also gave an IC50 (NCI-H460) of 43.1 µM and an IC50 (HL-60 [1]) of 55.9 µM.

In the case of `COc1ccc(CCC2=C(O)C(=O)c3cc(OC)cc(OC)c3C2=O)cc1`, the IC50 (HeLa) is reported as 72.8 µM, the IC50 (HepG2) is reported as 60.7 µM and the IC50 (A549) is reported as 82.4 µM. The IC50 (NCI-H460) was 97.5 µM and the IC50 (HL-60 [1]) was 93.1 µM.

For `CCCCC1=C(OC)C(=O)c2cc(OC)cc(OC)c2C1=O`, the IC50 (HeLa) was 52.4 µM, the IC50 (HepG2) was 55.9 µM and the IC50 (A549) was > 100 µM. The IC50 (NCI-H460) was 75.2 µM, the IC50 (HL-60 [1]) was 61.4 µM and the Activity [8] was -0.311 V. The Activity [9] was -0.187 V and the Activity [10] was -0.249 V.

For `COc1cc(OC)c2c(c1)C(=O)C(O)=CC2=O`, the IC50 (HeLa) was > 100 µM, the IC50 (HepG2) was > 100 µM and the IC50 (A549) was > 100 µM. The IC50 (NCI-H460) was > 100 µM and the IC50 (HL-60 [1]) was > 100 µM.
